Consider 23 molecules from patent US20260078120A1, “SUBSTITUTED PYRIDOPYRIMIDINONES” (MIRATI THERAPEUTICS, INC., priority 2022, published 2026).

In test [1] the test system is T47D (PI3Kα H1047R mutant) cells. Description: CellTiter-Glo 2.0 luminescent cell viability assay, 72 hours, T47D cells. As to conditions: T47D (PI3Kα H1047R mutant) cells, CellTiter-Glo, approximately 72 hours, read-out: T47D (H1047R mutant) Viability IC50. The test is classed as cell-based. The gist of the method:
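Cells seeded at 1000 per well overnight were dosed with a 10-concentration, 1:4 series starting at 10 µM and incubated ~72 h at 37° C. Viability was read by CellTiter-Glo 2.0 luminescence after 30 min at room temperature. IC50 came from four-parameter fits of percent vehicle control.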
A general note: In ATP-based viability assays light output follows the ATP content of the culture.

Test [2] has as its system SKBR3 (PI3Kα wild type) cells. Put plainly: CellTiter-Glo 2.0 luminescent cell viability assay, 72 hours, SKBR3 cells. The test is classed as cell-based. As to conditions: SKBR3 (PI3Kα wild type) cells, CellTiter-Glo, approximately 72 hours, read-out: SKBR3 (WT) Viability IC50. Put shortly: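 Viability measured via CTG luminescence following roughly 72 hours of compound exposure at 37° C. Dosing used a 10 um starting concentration diluted 1:4 over 10 points; percent-of-vehicle data fitted with a variable-slope four-parameter model for IC50.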

Where two headings read alike, the source gives them in different places.

As a reminder, the IC50 is the concentration that inhibits the measured activity by half.

Take `Cc1cc([C@@H](C)Nc2ccc(C)nc2C(=O)O)c2nc(N3CCC(F)(F)CC3)c(C)c(=O)n2c1` [Example 11-46, (R)-3-((1-(2-(4,4-difluoropiperidin-1-yl)-3,7-dimethyl-4-oxo-4H-pyrido[1,2-a]pyrimidin-9-yl)ethyl)amino)-6-methylpicolinic acid]: the IC50 was 150 nM in test [1] (Homo sapiens, T47D, 72 h) and above 10000 nM in test [2] (Homo sapiens, SK-BR-3, 72 h).
The corresponding values for `Cc1cc([C@@H](C)Nc2ccccc2C(=O)O)c2nc(N3C[C@H](F)C[C@@H](F)C3)c(C#N)c(=O)n2c1` [Example 11-47, 2-(((R)-1-(3-cyano-2-((3R,5R)-3,5-difluoropiperidin-1-yl)-7-methyl-4-oxo-4H-pyrido[1,2-a]pyrimidin-9-yl)ethyl)amino)benzoic acid] are 242 nM and above 10000 nM.
Consider `Cc1cc([C@@H](C)Nc2ccccc2C(=O)O)c2nc(N3C[C@H](F)C[C@H](F)C3)c(C#N)c(=O)n2c1` [Example 11-48, 2-(((R)-1-(3-cyano-2-((3R,5S)-3,5-difluoropiperidin-1-yl)-7-methyl-4-oxo-4H-pyrido[1,2-a]pyrimidin-9-yl)ethyl)amino)benzoic acid], for which the IC50 was 854 nM in test [1] (Homo sapiens, T47D, 72 h) and above 10000 nM in test [2] (Homo sapiens, SK-BR-3, 72 h).
The corresponding values for `Cc1cc([C@@H](C)Nc2ccccc2C(=O)O)c2nc(NCC(C)C(F)(F)F)c(C#N)c(=O)n2c1` (stereo partly drawn) [Example 11-49, 2-(((1R)-1-(3-cyano-7-methyl-4-oxo-2-((3,3,3-trifluoro-2-methylpropyl)amino)-4H-pyrido[1,2-a]pyrimidin-9-yl)ethyl)amino)benzoic acid] are 204 nM and above 10000 nM.
For `C[C@@H](Nc1ccc(Cl)nc1C(=O)O)c1cc(Cl)cn2c(=O)c(C#N)c(N3CCC(F)(F)CC3)nc12` [Example 11-50, (R)-6-chloro-3-((1-(7-chloro-3-cyano-2-(4,4-difluoropiperidin-1-yl)-4-oxo-4H-pyrido[1,2-a]pyrimidin-9-yl)ethyl)amino)picolinic acid], the IC50 in test [1] (Homo sapiens, T47D, 72 h) was 217 nM; in test [2] (Homo sapiens, SK-BR-3, 72 h) it was above 10000 nM.
Take `Cc1cc([C@@H](C)Nc2ccccc2C(=O)O)c2nc(N[C@H](C)c3cccnc3)c(C#N)c(=O)n2c1` [Example 11-51, 2-(((R)-1-(3-cyano-7-methyl-4-oxo-2-(((R)-1-(pyridin-3-yl)ethyl)amino)-4H-pyrido[1,2-a]pyrimidin-9-yl)ethyl)amino)benzoic acid]: the IC50 is above 10000 nM in test [1] (Homo sapiens, T47D, 72 h) and above 10000 nM in test [2] (Homo sapiens, SK-BR-3, 72 h).
Take `Cc1cc([C@@H](C)Nc2ccccc2C(=O)O)c2nc(N[C@@H](C)c3cccnc3)c(C#N)c(=O)n2c1` [Example 11-52, 2-(((R)-1-(3-cyano-7-methyl-4-oxo-2-(((S)-1-(pyridin-3-yl)ethyl)amino)-4H-pyrido[1,2-a]pyrimidin-9-yl)ethyl)amino)benzoic acid]: the IC50 is 6640 nM in test [1] (Homo sapiens, T47D, 72 h) and above 10000 nM in test [2] (Homo sapiens, SK-BR-3, 72 h).
The corresponding values for `Cc1cc([C@@H](C)Nc2ccccc2C(=O)O)c2nc(N3CCC(c4cc[nH]n4)CC3)c(C#N)c(=O)n2c1` [Example 11-53, (R)-2-((1-(2-(4-(1H-pyrazol-3-yl)piperidin-1-yl)-3-cyano-7-methyl-4-oxo-4H-pyrido[1,2-a]pyrimidin-9-yl)ethyl)amino)benzoic acid] are 2520 nM and above 10000 nM.
On to `Cc1cc([C@@H](C)Nc2ccccc2C(=O)O)c2nc(N3CCC4(CC3)CC(F)(F)C4)c(C)c(=O)n2c1` [Example 11-54, (R)-2-((1-(2-(2,2-difluoro-7-azaspiro[3.5]nonan-7-yl)-3,7-dimethyl-4-oxo-4H-pyrido[1,2-a]pyrimidin-9-yl)ethyl)amino)benzoic acid], for which the IC50 is 325 nM in test [1] (Homo sapiens, T47D, 72 h) and above 10000 nM in test [2] (Homo sapiens, SK-BR-3, 72 h).
The corresponding values for `Cc1cc([C@@H](C)Nc2ccccc2C(=O)O)c2nc(N3CCC4(CCO4)CC3)c(C#N)c(=O)n2c1` [Example 11-55, (R)-2-((1-(3-cyano-7-methyl-4-oxo-2-(1-oxa-7-azaspiro[3.5]nonan-7-yl)-4H-pyrido[1,2-a]pyrimidin-9-yl)ethyl)amino)benzoic acid] are 219 nM and above 10000 nM.
The like results for `Cc1cc([C@@H](C)Nc2ccccc2C(=O)O)c2nc(N3CCC4(CCO4)CC3)c(C)c(=O)n2c1` [Example 11-56, (R)-2-((1-(3,7-dimethyl-4-oxo-2-(1-oxa-7-azaspiro[3.5]nonan-7-yl)-4H-pyrido[1,2-a]pyrimidin-9-yl)ethyl)amino)benzoic acid] were, in that order, 264 nM and above 10000 nM.
The corresponding values for `CO[C@H]1CN(c2nc3c([C@@H](C)Nc4ccccc4C(=O)O)cc(C)cn3c(=O)c2C)CCC1(F)F` [Example 11-57, 2-(((R)-1-(2-((S)-4,4-difluoro-3-methoxypiperidin-1-yl)-3,7-dimethyl-4-oxo-4H-pyrido[1,2-a]pyrimidin-9-yl)ethyl)amino)benzoic acid] are 132 nM and above 10000 nM.
Take `CO[C@@H]1CN(c2nc3c([C@@H](C)Nc4ccccc4C(=O)O)cc(C)cn3c(=O)c2C)CCC1(F)F` [Example 11-58, 2-(((R)-1-(2-((R)-4,4-difluoro-3-methoxypiperidin-1-yl)-3,7-dimethyl-4-oxo-4H-pyrido[1,2-a]pyrimidin-9-yl)ethyl)amino)benzoic acid]: the IC50 was 170 nM in test [1] (Homo sapiens, T47D, 72 h) and above 10000 nM in test [2] (Homo sapiens, SK-BR-3, 72 h).
On to `Cc1cc([C@@H](C)Nc2ccccc2C(=O)O)c2nc(N3CC[C@@H](C)C(F)(F)C3)c(C)c(=O)n2c1` [Example 11-59, 2-(((R)-1-(2-((R)-3,3-difluoro-4-methylpiperidin-1-yl)-3,7-dimethyl-4-oxo-4H-pyrido[1,2-a]pyrimidin-9-yl)ethyl)amino)benzoic acid], for which the half-maximal inhibitory concentration (IC50) was 273 nM in test [1] (Homo sapiens, T47D, 72 h) and above 10000 nM in test [2] (Homo sapiens, SK-BR-3, 72 h).
The corresponding values for `Cc1cc([C@@H](C)Nc2ccccc2C(=O)O)c2nc(N3CC[C@H](C)C(F)(F)C3)c(C)c(=O)n2c1` [Example 11-60, 2-(((R)-1-(2-((S)-3,3-difluoro-4-methylpiperidin-1-yl)-3,7-dimethyl-4-oxo-4H-pyrido[1,2-a]pyrimidin-9-yl)ethyl)amino)benzoic acid] are 158 nM and above 10000 nM.
The like results for `Cc1cc([C@@H](C)Nc2ccccc2C(=O)O)c2nc(N3CC(F)(F)C4(CC4)C3)c(C)c(=O)n2c1` [Example 11-61, (R)-2-((1-(2-(7,7-difluoro-5-azaspiro[2.4]heptan-5-yl)-3,7-dimethyl-4-oxo-4H-pyrido[1,2-a]pyrimidin-9-yl)ethyl)amino)benzoic acid] were, in that order, 145 nM and above 10000 nM.
`Cc1cc([C@@H](C)Nc2ccccc2C(=O)O)c2nc(N3CCC4(CCOC4)CC3)c(C)c(=O)n2c1` [Example 11-62, (R)-2-((1-(3,7-dimethyl-4-oxo-2-(2-oxa-8-azaspiro[4.5]decan-8-yl)-4H-pyrido[1,2-a]pyrimidin-9-yl)ethyl)amino)benzoic acid]: the IC50 in test [1] is 173 nM; in test [2] it was above 10000 nM.
With `Cc1cc([C@@H](C)Nc2ccccc2C(=O)O)c2nc(N3CCC4(CCCO4)CC3)c(C)c(=O)n2c1` [Example 11-63, (R)-2-((1-(3,7-dimethyl-4-oxo-2-(1-oxa-8-azaspiro[4.5]decan-8-yl)-4H-pyrido[1,2-a]pyrimidin-9-yl)ethyl)amino)benzoic acid], the IC50 in test [1] (Homo sapiens, T47D, 72 h) was 136 nM; in test [2] (Homo sapiens, SK-BR-3, 72 h), above 10000 nM.
The like results for `Cc1cc([C@@H](C)Nc2ccccc2C(=O)O)c2nc(N3CCC(F)(F)[C@H](C)C3)c(C#N)c(=O)n2c1` [Example 11-64, 2-(((R)-1-(3-cyano-2-((R)-4,4-difluoro-3-methylpiperidin-1-yl)-7-methyl-4-oxo-4H-pyrido[1,2-a]pyrimidin-9-yl)ethyl)amino)benzoic acid] were, in that order, 131 nM and above 10000 nM.
Turning to `Cc1cc([C@@H](C)Nc2ccccc2C(=O)O)c2nc(N3CCC(F)(F)C(C)C3)c(C)c(=O)n2c1` (stereo partly drawn) [Example 11-65, 2-(((1R)-1-(2-(4,4-difluoro-3-methylpiperidin-1-yl)-3,7-dimethyl-4-oxo-4H-pyrido[1,2-a]pyrimidin-9-yl)ethyl)amino)benzoic acid], the IC50 is 146 nM in test [1] (Homo sapiens, T47D, 72 h) and above 10000 nM in test [2] (Homo sapiens, SK-BR-3, 72 h).
The corresponding values for `CO[C@@H]1CCN(c2nc3c([C@@H](C)Nc4ccccc4C(=O)O)cc(C)cn3c(=O)c2C#N)CC1(F)F` [Example 11-66, 2-(((R)-1-(3-cyano-2-((R)-3,3-difluoro-4-methoxypiperidin-1-yl)-7-methyl-4-oxo-4H-pyrido[1,2-a]pyrimidin-9-yl)ethyl)amino)benzoic acid] are 231 nM and above 10000 nM.
On to `COC1CCN(c2nc3c([C@@H](C)Nc4ccccc4C(=O)O)cc(C)cn3c(=O)c2C#N)CC1(F)F` (stereo partly drawn) [Example 11-67, 2-(((1R)-1-(3-cyano-2-(3,3-difluoro-4-methoxypiperidin-1-yl)-7-methyl-4-oxo-4H-pyrido[1,2-a]pyrimidin-9-yl)ethyl)amino)benzoic acid], for which the IC50 is 144 nM in test [1] (Homo sapiens, T47D, 72 h) and above 10000 nM in test [2] (Homo sapiens, SK-BR-3, 72 h).
The like results for `Cc1cc([C@@H](C)Nc2ccccc2C(=O)O)c2nc(N3CCC(C)(C#N)CC3)c(C#N)c(=O)n2c1` [Example 11-68, (R)-2-((1-(3-cyano-2-(4-cyano-4-methylpiperidin-1-yl)-7-methyl-4-oxo-4H-pyrido[1,2-a]pyrimidin-9-yl)ethyl)amino)benzoic acid] were, in that order, 508 nM and above 10000 nM.
